Experimental data from paper PMC3227451, “Structure-based development of novel sirtuin inhibitors” (Aging (Albany NY), 2011).
Like-named read-outs stand apart in the source and are kept apart here.

Legend:
Format in all cases: biochemical
[1] = biological target: T1, Sirt2 (Homo sapiens, UniProt Q8IXJ6); assay: Fluor-de-Lys peptide deacetylation assay, Sirt2
T1 sequence (Q8IXJ6 34-356): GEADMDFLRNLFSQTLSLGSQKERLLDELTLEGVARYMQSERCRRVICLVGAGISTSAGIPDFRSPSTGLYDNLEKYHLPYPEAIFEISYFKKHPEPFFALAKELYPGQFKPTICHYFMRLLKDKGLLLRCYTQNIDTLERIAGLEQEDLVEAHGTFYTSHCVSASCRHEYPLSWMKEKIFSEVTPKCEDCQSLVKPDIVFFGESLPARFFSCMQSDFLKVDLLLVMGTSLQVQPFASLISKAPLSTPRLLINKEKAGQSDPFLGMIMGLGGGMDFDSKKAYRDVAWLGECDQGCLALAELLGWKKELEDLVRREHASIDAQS
Experimental: The Sirt2 construct was expressed in E. coli Rosetta2 cells (Merck) in LB/Ampicillin/Chloramphenicol medium. Cells were grown at 37 °C, and expression induced at an OD600 of 0.6-0.8 for 4 h with 0.5 mM IPTG. Harvested cells were resuspended in buffer A (50 mM Tris/HCl pH 7.8, 200 mM NaCl, 2 mM DTT), disrupted with a Sonifier, and cell debris removed by 40 min centrifugation at 4 °C, 18000 rpm in a HFA22.50 rotor. The supernatant was supplemented with 10 mM imidazole and incubated with Ni-NTA resin for 1 h at 4 °C. […] The protein was concentrated in an amicon unit (Millipore, Billerica, USA) and digested over night at 4 °C with TEV-protease. The protease was removed from cleaved Sirt2 by incubation with Ni-NTA resin for 1 h at 4 °C. The protein was concentrated, 1:5 diluted with 50 mM Tris/HCl, pH 7.8, and applied to a HiTrap Q anion exchange column (GE Healthcare) equilibrated with 50 mM Tris/HCl, pH 7.8, 50 mM NaCl, 2 mM DTT and eluted with a gradient (20 column volumes) to 50 mM Tris/HCl, pH 7.8, 1 M NaCl, 2 mM DTT. Sirt2 was then applied to a Superdex200 gel filtration column (GE Healthcare) equilibrated in 20 mM Tris/HCl, pH 7.8, 150 mM NaCl, 2 mM DTT. The eluted protein was analyzed by SDS-PAGE, re-concentrated, and shock-frozen in liquid nitrogen for storage at -80 °C.
(§1) The commercial Fluor-de-Lys (FdL) assay kits 1 and 2 (Biomol, Plymouth Meeting, USA) were used to test the deacetylase activity of the four Sirtuins. In both kits the substrate derived from p53 is composed of three amino acids, the acetyl lysine and a C-terminally attached fluorophor. For Sirt2 and 3, FdL-2 peptide (QPK(acetyl-K)) was used, and FdL-1 peptide (RHK(acetyl-K)) for Sirt5 and Sirt6. All tests were done with 0.1 mM of the respective FdL peptide and 0.5 mM NAD^+ as substrates.
(§2) NCI compound stocks were prepared by dissolving them in DMSO at a concentration of 5 mM. The initial screens with all 40 compounds contained 5 μl Sirtuin solution (Sirt2/3 0.1 mg/ml stock concentration; Sirt5/6 1 mg/ml), 1 μl of compound stock (resulting in a 100 μM end concentration), 15 μl FdL substrate, and assay buffer (supplied in the assay kit) to a total volume of 50 μl. As control reactions, peptide with either the compound (without Sirtuin) or with Sirtuin and DMSO instead of compound were measured. After starting the reactions by adding the FdL substrate, assays were incubated for 30 min at 37 °C. Subsequently, 50 μl of a 10 mg/ml trypsin stock (“Developer solution”) were added and the reactions were incubated for 45 min at room temperature. Fluorescence values were measured in a fluorometric plate reader with excitation at 360 nm and read out at 485 nm. Values were then corrected with the control reaction (same compound, but without Sirtuin).
(§3) All measurements shown are averages of duplicates (screen) or triplicates (dose-response curves), and representatives of at least two independent replications. Error bars indicate standard deviations.

[2] = biological target: T2, Sirt5 (Homo sapiens, UniProt Q9NXA8); assay: Fluor-de-Lys peptide deacetylation assay, Sirt5
T2 construct: Sirt5 residues 34-302; His-tag with linker comprising a TEV protease cleavage site (N); made in house
T2 sequence (Q9NXA8 34-302): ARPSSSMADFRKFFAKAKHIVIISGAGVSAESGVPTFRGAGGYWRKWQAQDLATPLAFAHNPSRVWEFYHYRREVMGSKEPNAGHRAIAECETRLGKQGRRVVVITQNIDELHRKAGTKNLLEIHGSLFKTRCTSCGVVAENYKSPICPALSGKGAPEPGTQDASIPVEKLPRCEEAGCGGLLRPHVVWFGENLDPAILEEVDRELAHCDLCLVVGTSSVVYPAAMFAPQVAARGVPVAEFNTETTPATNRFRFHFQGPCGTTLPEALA
Experimental: (§4) Sirt3 was expressed in E. coli and purified via Ni-NTA and size exclusion chromatography as described elsewhere, and Sirt5 according to the protocol of Schuetz et al.. […] The protein was bound to the HiTrapQ column in buffer A and eluted in a gradient to buffer A supplemented with 400 mM KCl. Fractions were analyzed by SDS-PAGE, and the Sirt1 fractions were pooled and transferred into buffer A using a NAP column (GE Healthcare).
as §1, §2, §3

[3] = biological target: T3, Sirt3 (Homo sapiens, UniProt Q9NTG7); assay: Fluor-de-Lys peptide deacetylation assay, Sirt3
T3 construct: Sirt3 residues 114-399; His-tag with linker comprising a TEV protease cleavage site (N); made in house; host or cells: E. coli
T3 sequence (Q9NTG7 114-399): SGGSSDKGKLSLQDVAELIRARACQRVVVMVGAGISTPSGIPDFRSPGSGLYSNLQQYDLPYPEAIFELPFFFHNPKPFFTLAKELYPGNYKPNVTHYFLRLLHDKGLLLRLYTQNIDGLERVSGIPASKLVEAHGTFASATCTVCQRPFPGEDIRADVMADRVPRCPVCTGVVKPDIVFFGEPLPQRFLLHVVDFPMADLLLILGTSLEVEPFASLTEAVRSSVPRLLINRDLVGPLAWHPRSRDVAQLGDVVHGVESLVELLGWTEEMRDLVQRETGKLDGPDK
Experimental: as §4, §1, §2, §3

[4] = biological target: T4, Sirt6 (Homo sapiens, UniProt Q8N6T7); assay: Fluor-de-Lys peptide deacetylation assay, Sirt6
T4 construct: Sirt6 residues 13-308; His-tag with linker comprising a TEV protease cleavage site (N, cleaved yes); made in house; host or cells: E. coli Rosetta2
Experimental: as §1, §2, §3

[5] = 100 μM compound, 0.1 mM FdL-2 peptide, 0.5 mM NAD+
[6] = 100 μM compound, 0.1 mM FdL-1 peptide, 0.5 mM NAD+

T4 sequence (Q8N6T7 13-308): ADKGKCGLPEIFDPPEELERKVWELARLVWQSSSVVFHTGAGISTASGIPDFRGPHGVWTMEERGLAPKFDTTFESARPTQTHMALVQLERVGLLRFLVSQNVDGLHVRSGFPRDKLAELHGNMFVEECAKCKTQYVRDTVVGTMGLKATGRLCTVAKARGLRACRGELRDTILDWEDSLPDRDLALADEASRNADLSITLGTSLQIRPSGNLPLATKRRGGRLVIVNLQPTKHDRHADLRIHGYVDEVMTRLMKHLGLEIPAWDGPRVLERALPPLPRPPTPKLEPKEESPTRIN

Row | Structure (SMILES) | Effect on the activity of Sirt2 [1, 5] | Effect on the activity of Sirt5 [2, 6] | Effect on the activity of Sirt3 [3, 5] | Effect on the activity of Sirt6 [4, 6] | Effect on the activity of Sirt2 [1] | Effect on the activity of Sirt5 [2] | Effect on the activity of Sirt3 [3] | Effect on the activity of Sirt6 [4]
1 | O=C1C=C(Nc2nc(O)cc(C(=O)O)n2)c2ccccc2C1=O [CSC30, 2-((3,4-dioxo-3,4-dihydro-1-naphthalenyl)amino)-6-hydroxy-4-pyrimidinecarboxylic acid] | --- (no such effect) | --- (no such effect) | --- (no such effect) | --- (no such effect) | – | – | – | –
2 | COc1ccc2c(c1)Cc1cc(/N=[N+](\[O-])c3ccc4c(c3)Cc3cc(OC)ccc3-4)ccc1-2 [CSC32, 1-hydroxy-1,2-bis(7-methoxy-9H-fluoren-2-yl)-1^5-diazene] | inhibition (significant inhibitory effects (>25% loss of activity)) | --- (no such effect) | --- (no such effect) | --- (no such effect) | – | – | – | –
3 | CN1C[C@H](C(=O)N[C@]2(C)O[C@@]3(O)[C@@H]4CCCN4C(=O)[C@H](Cc4ccccc4)N3C2=O)C=C2c3cccc4[nH]cc(c34)C[C@H]21 [CSC21, 5'-benzyl-12'-hydroxy-2'-methyl-3',6',18-trioxoergotaman, (Ergotamine), reference compound] | – | – | – | – | inhibition (key: inhibition: significant inhibitory effects (>25% loss of activity); ---: no such effect) | inhibition (key: inhibition: significant inhibitory effects (>25% loss of activity); ---: no such effect) | --- (key: inhibition: significant inhibitory effects (>25% loss of activity); ---: no such effect) | inhibition (key: inhibition: significant inhibitory effects (>25% loss of activity); ---: no such effect)
4 | O=S(=O)(c1cccc(C(F)(F)F)c1)N1c2ccccc2-n2cccc2C1c1cccnc1 (stereo not drawn) [CSC38, 4-(3-pyridinyl)-5-((3-(trifluoromethyl)phenyl)sulfonyl)-4,5-dihydropyrrolo[1,2-a]quinoxaline] | inhibition (significant inhibitory effects (>25% loss of activity)) | activation | --- (no such effect) | activation | – | – | – | –
5 | Cc1ccc(C2(C)CCC(=NN=C3CCC(C)(c4ccc(C)c(C)c4)c4cc(C)c(C)cc43)c3cc(C)c(C)cc32)cc1C (stereo not drawn) [CSC26, 4-(3,4-dimethylphenyl)-4,6,7-trimethyl-3,4-dihydro-1(2H)-naphthalenone (4-(3,4-dimethylphenyl)-4,6,7-trimethyl-3,4-dihydro-1(2H)-naphthalenylidene)hydrazone] | --- (no such effect) | --- (no such effect) | --- (no such effect) | --- (no such effect) | – | – | – | –
6 | C[C@]12CC[C@H]3[C@@H](CCC4=CC(=O)CC[C@@H]43)[C@@H]1CCC2OC1(O)C(=O)c2ccccc2C1=O (stereo partly drawn) [CSC16, 2-hydroxy-2-((3-oxoestr-4-en-17-yl)oxy)-1H-indene-1,3(2H)-dione] | – | – | – | – | --- (key: inhibition: significant inhibitory effects (>25% loss of activity); ---: no such effect) | --- (key: inhibition: significant inhibitory effects (>25% loss of activity); ---: no such effect) | --- (key: inhibition: significant inhibitory effects (>25% loss of activity); ---: no such effect) | --- (key: inhibition: significant inhibitory effects (>25% loss of activity); ---: no such effect)
7 | Cc1nc2ccccc2nc1-c1ccc(/N=[N+](\[O-])c2ccc(-c3nc4ccccc4nc3C)cc2)cc1 [CSC15, 2-(4-(1-hydroxy-2-(4-(3-methyl-2-quinoxalinyl)phenyl)-1^5-diazenyl)phenyl)-3-methylquinoxaline] | --- (no such effect) | --- (no such effect) | --- (no such effect) | --- (no such effect) | – | – | – | –
8 | c1ccc2c(c1)C(=Nc1ccc(N=C3c4ccccc4-c4ccccc43)cc1)c1ccccc1-2 [CSC2, N1,N4-di(9H-fluoren-9-ylidene)-1,4-benzenediamine] | inhibition (significant inhibitory effects (>25% loss of activity)) | --- (no such effect) | --- (no such effect) | --- (no such effect) | – | – | – | –
9 | c1ccc(CN2COc3c(ccc4c5c(ccc34)CN(Cc3ccccc3)CO5)C2)cc1 [CSC18] | --- (no such effect) | --- (no such effect) | --- (no such effect) | --- (no such effect) | – | – | – | –
